Source: patent publication US11000033B2, “Ketone or oxime compound, and herbicide” (NISSAN CHEMICAL CORPORATION, priority 2014, dated 2021)

Tests used:
Format in all cases: in vivo
[1] = tested on: Apera spica-venti; experiment: Test Example 4: herbicidal effect by soil treatment (symbol L); conditions: application herbicide amount 320 g/ha
Outline: (§1)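 Seeds were sown in sterilized diluvial soil, covered with about 1.5 cm of soil, and the soil surface was sprayed with a water-diluted emulsion of the compound at a predetermined rate. Plants grew in a greenhouse at 25° C. to 30° C.; effects were scored visually 3 weeks after application.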

[2] = tested on: Echinochloa crus-galli var. crus-galli; experiment: Test Example 5: herbicidal effect by foliage application, plastic box (symbol H); conditions: 320 g/ha, 3 weeks after application
Outline: (§2)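 Herbicide, formulated as an emulsion and diluted in water, is sprayed onto the aerial parts of 14-day seedlings. These were grown at 25° C. to 30° C. in sterilized diluvial soil; effects are graded after 3 weeks.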

[3] = tested on: Avena fatua; experiment: Test Example 4: herbicidal effect by soil treatment (symbol I); conditions: application herbicide amount 320 g/ha
Outline: as §1

[4] = tested on: Apera spica-venti; experiment: Test Example 5: herbicidal effect by foliage application, plastic box (symbol L); conditions: 320 g/ha, 3 weeks after application
Outline: as §2

[5] = tested on: Scirpus juncoides; experiment: Test Example 1: herbicidal activity, application before weed generation in submerged conditions (symbol B); conditions: application herbicide amount 320 g/ha
Outline: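 Weed control was rated three weeks after treatment on a 0–5 scale, from 5% or lower up to 90% or more. Pre-emergence water-surface application of diluted emulsion at a predetermined rate was made on the day of sowing, in flooded (4 cm water) pots containing rice seedlings, kept at 25–30 °C under glass.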

[6] = tested on: Setaria viridis; experiment: Test Example 4: herbicidal effect by soil treatment (symbol G); conditions: application herbicide amount 320 g/ha
Outline: as §1

[7] = tested on: rapeseed; experiment: Test Example 4: effect on crop by soil treatment (symbol g); conditions: application herbicide amount 320 g/ha
Outline: (§3)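 Plants are raised in a greenhouse (25° C. to 30° C.) from spot-sown seed, which sits under about 1.5 cm of sterilized diluvial soil in a box shared with weed species.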

[8] = tested on: soybean; experiment: Test Example 5: effect on crop by foliage application, plastic box (symbol d); conditions: 320 g/ha, 3 weeks after application
Outline: (§4)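 Greenhouse culture at 25° C. to 30° C. followed spot-like sowing into sterilized diluvial soil, with seed covered by roughly 1.5 cm of soil.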

[9] = tested on: Veronica persica; experiment: Test Example 5: herbicidal effect by foliage application, plastic box (symbol R); conditions: 320 g/ha, 3 weeks after application
Outline: as §2

[10] = tested on: rapeseed; experiment: Test Example 5: effect on crop by foliage application, plastic box (symbol g); conditions: 320 g/ha, 3 weeks after application
Outline: as §4

[11] = tested on: rice; experiment: Test Example 4: effect on crop by soil treatment (symbol b); conditions: application herbicide amount 320 g/ha
Outline: as §3

[12] = tested on: Abutilon theophrasti; experiment: Test Example 5: herbicidal effect by foliage application, plastic box (symbol M); conditions: 320 g/ha, 3 weeks after application
Outline: as §2

[13] = tested on: Monochoria vaginalis; experiment: Test Example 2: herbicidal activity, application during weed generation in submerged conditions (symbol C); conditions: Table 23; application herbicide amount 320 g/ha; grade 0-5 by criteria of Test Example 1
Outline: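 Read-out: herbicidal effect on each species rated on a visual scale 3 weeks after treatment. Plants were raised together from seed in flooded alluvial soil (4 cm water) at 25° C. to 30° C. and treated at one to two leaves by water-surface application of diluted emulsion.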

[14] = tested on: Digitaria ciliaris; experiment: Test Example 5: herbicidal effect by foliage application, plastic box (symbol F); conditions: 320 g/ha, 3 weeks after application
Outline: as §2

[15] = tested on: Avena fatua; experiment: Test Example 5: herbicidal effect by foliage application, plastic box (symbol I); conditions: 320 g/ha, 3 weeks after application
Outline: as §2

[16] = tested on: Setaria viridis; experiment: Test Example 5: herbicidal effect by foliage application, plastic box (symbol G); conditions: 320 g/ha, 3 weeks after application
Outline: as §2

[17] = tested on: Chenopodium album; experiment: Test Example 5: herbicidal effect by foliage application, plastic box (symbol O); conditions: 320 g/ha, 3 weeks after application
Outline: as §2

| SMILES | L (Apera spica-venti) herbicidal effect grade [1] | H: Echinochloa crus-galli var. crus-galli, herbicidal effect grade [2] | I (Avena fatua) herbicidal effect grade [3] | L: Apera spica-venti, herbicidal effect grade [4] | Herbicidal effect grade, B: Scirpus juncoides [5] | G (Setaria viridis) herbicidal effect grade [6] | g (rapeseed) effect on crop grade [7] | d: soybean, effect on crop grade [8] | R: Veronica persica, herbicidal effect grade [9] | g: rapeseed, effect on crop grade [10] | b (directly sowed rice plant) effect on crop grade [11] | M: Abutilon theophrasti, herbicidal effect grade [12] | Herbicidal effect grade, C: Monochoria vaginalis [13] | F: Digitaria ciliaris, herbicidal effect grade [14] | I: Avena fatua, herbicidal effect grade [15] | G: Setaria viridis, herbicidal effect grade [16] | O: Chenopodium album, herbicidal effect grade [17] |
| --- | --- | --- | --- | --- | --- | --- | --- | --- | --- | --- | --- | --- | --- | --- | --- | --- | --- |
| CON=CC(C)(C)C1CC(O)=C(c2c(C)cc(C)cc2C)C1=O (stereo not shown) [1-030] | 3 (Herbicidal ratio of 40% or higher and lower than 70%) | 4 (Herbicidal ratio of 70% or higher and lower than 90%) | 0 (Herbicidal ratio of 5% or lower (almost no effect)) | 4 (Herbicidal ratio of 70% or higher and lower than 90%) | 0 (Herbicidal ratio of 5% or lower (almost no effect)) | 2 (Herbicidal ratio of 20% or higher and lower than 40%) | 0 (Herbicidal ratio of 5% or lower (almost no effect)) | 0 (Herbicidal ratio of 5% or lower (almost no effect)) | 0 (Herbicidal ratio of 5% or lower (almost no effect)) | 3 (Herbicidal ratio of 40% or higher and lower than 70%) | 4 (Herbicidal ratio of 70% or higher and lower than 90%) | 0 (Herbicidal ratio of 5% or lower (almost no effect)) | 0 (Herbicidal ratio of 5% or lower (almost no effect)) | 4 (Herbicidal ratio of 70% or higher and lower than 90%) | 3 (Herbicidal ratio of 40% or higher and lower than 70%) | 5 (Herbicidal ratio of 90% or more (almost completely withered)) | 0 (Herbicidal ratio of 5% or lower (almost no effect)) |
| COCC(CC1CC(O)=C(c2c(C)cc(C)cc2C)C1=O)=NOC (stereo not shown) [1-040] | 5 (Herbicidal ratio of 90% or more (almost completely withered)) | 5 (Herbicidal ratio of 90% or more (almost completely withered)) | 3 (Herbicidal ratio of 40% or higher and lower than 70%) | 5 (Herbicidal ratio of 90% or more (almost completely withered)) | 2 (Herbicidal ratio of 20% or higher and lower than 40%) | 4 (Herbicidal ratio of 70% or higher and lower than 90%) | 3 (Herbicidal ratio of 40% or higher and lower than 70%) | 0 (Herbicidal ratio of 5% or lower (almost no effect)) | 0 (Herbicidal ratio of 5% or lower (almost no effect)) | 4 (Herbicidal ratio of 70% or higher and lower than 90%) | 5 (Herbicidal ratio of 90% or more (almost completely withered)) | 1 (Herbicidal ratio of 5% or higher and lower than 20%) | 0 (Herbicidal ratio of 5% or lower (almost no effect)) | 4 (Herbicidal ratio of 70% or higher and lower than 90%) | 4 (Herbicidal ratio of 70% or higher and lower than 90%) | 4 (Herbicidal ratio of 70% or higher and lower than 90%) | 0 (Herbicidal ratio of 5% or lower (almost no effect)) |
| CON=C(C)CC1CC(OC(=O)C(C)Cl)=C(c2c(C)cc(C)cc2C)C1=O (stereo not shown) [1-042] | 5 (Herbicidal ratio of 90% or more (almost completely withered)) | 5 (Herbicidal ratio of 90% or more (almost completely withered)) | 3 (Herbicidal ratio of 40% or higher and lower than 70%) | 5 (Herbicidal ratio of 90% or more (almost completely withered)) | 5 (Herbicidal ratio of 90% or more (almost completely withered)) | 5 (Herbicidal ratio of 90% or more (almost completely withered)) | 4 (Herbicidal ratio of 70% or higher and lower than 90%) | 3 (Herbicidal ratio of 40% or higher and lower than 70%) | 1 (Herbicidal ratio of 5% or higher and lower than 20%) | 4 (Herbicidal ratio of 70% or higher and lower than 90%) | 5 (Herbicidal ratio of 90% or more (almost completely withered)) | 3 (Herbicidal ratio of 40% or higher and lower than 70%) | 3 (Herbicidal ratio of 40% or higher and lower than 70%) | 5 (Herbicidal ratio of 90% or more (almost completely withered)) | 5 (Herbicidal ratio of 90% or more (almost completely withered)) | 5 (Herbicidal ratio of 90% or more (almost completely withered)) | 0 (Herbicidal ratio of 5% or lower (almost no effect)) |
| CON=C(C)CC1CC(OC(=O)COc2ccccc2)=C(c2c(C)cc(C)cc2C)C1=O (stereo not shown) [1-043] | 5 (Herbicidal ratio of 90% or more (almost completely withered)) | 5 (Herbicidal ratio of 90% or more (almost completely withered)) | 4 (Herbicidal ratio of 70% or higher and lower than 90%) | 5 (Herbicidal ratio of 90% or more (almost completely withered)) | 5 (Herbicidal ratio of 90% or more (almost completely withered)) | 5 (Herbicidal ratio of 90% or more (almost completely withered)) | 5 (Herbicidal ratio of 90% or more (almost completely withered)) | 4 (Herbicidal ratio of 70% or higher and lower than 90%) | 2 (Herbicidal ratio of 20% or higher and lower than 40%) | 4 (Herbicidal ratio of 70% or higher and lower than 90%) | 5 (Herbicidal ratio of 90% or more (almost completely withered)) | 4 (Herbicidal ratio of 70% or higher and lower than 90%) | 3 (Herbicidal ratio of 40% or higher and lower than 70%) | 5 (Herbicidal ratio of 90% or more (almost completely withered)) | 5 (Herbicidal ratio of 90% or more (almost completely withered)) | 5 (Herbicidal ratio of 90% or more (almost completely withered)) | 2 (Herbicidal ratio of 20% or higher and lower than 40%) |
| CON=C(CC1CC(O)=C(c2c(C)cc(C)cc2C)C1=O)c1ccccn1 (stereo not shown) [1-045] | 0 (Herbicidal ratio of 5% or lower (almost no effect)) | 5 (Herbicidal ratio of 90% or more (almost completely withered)) | 0 (Herbicidal ratio of 5% or lower (almost no effect)) | 5 (Herbicidal ratio of 90% or more (almost completely withered)) | 2 (Herbicidal ratio of 20% or higher and lower than 40%) | 0 (Herbicidal ratio of 5% or lower (almost no effect)) | 0 (Herbicidal ratio of 5% or lower (almost no effect)) | 1 (Herbicidal ratio of 5% or higher and lower than 20%) | 0 (Herbicidal ratio of 5% or lower (almost no effect)) | 2 (Herbicidal ratio of 20% or higher and lower than 40%) | 0 (Herbicidal ratio of 5% or lower (almost no effect)) | 0 (Herbicidal ratio of 5% or lower (almost no effect)) | 0 (Herbicidal ratio of 5% or lower (almost no effect)) | 4 (Herbicidal ratio of 70% or higher and lower than 90%) | 5 (Herbicidal ratio of 90% or more (almost completely withered)) | 5 (Herbicidal ratio of 90% or more (almost completely withered)) | 0 (Herbicidal ratio of 5% or lower (almost no effect)) |
